From PMC7857637, “The three NADH dehydrogenases of Pseudomonas aeruginosa: Their roles in energy metabolism and links to virulence” (PLoS ONE, 2021)

Target: T1, NQR complex (pHERD28C-NQR) (Pseudomonas aeruginosa, UniProt Q9HZK7+Q9HZK8)
T1 construct: gene nqrB; complete nqr operon on pHERD28C plasmid, C-terminal His tag on NqrF, expressed in P. aeruginosa, partially purified on Ni-NTA; with Na(+)-translocating NADH-quinone reductase subunit A; Na(+)-translocating NADH-quinone reductase subunit D; Na(+)-translocating NADH-quinone reductase subunit E; Na(+)-translocating NADH-quinone reductase subunit F
T1 sequence (Q9HZK7 whole entry): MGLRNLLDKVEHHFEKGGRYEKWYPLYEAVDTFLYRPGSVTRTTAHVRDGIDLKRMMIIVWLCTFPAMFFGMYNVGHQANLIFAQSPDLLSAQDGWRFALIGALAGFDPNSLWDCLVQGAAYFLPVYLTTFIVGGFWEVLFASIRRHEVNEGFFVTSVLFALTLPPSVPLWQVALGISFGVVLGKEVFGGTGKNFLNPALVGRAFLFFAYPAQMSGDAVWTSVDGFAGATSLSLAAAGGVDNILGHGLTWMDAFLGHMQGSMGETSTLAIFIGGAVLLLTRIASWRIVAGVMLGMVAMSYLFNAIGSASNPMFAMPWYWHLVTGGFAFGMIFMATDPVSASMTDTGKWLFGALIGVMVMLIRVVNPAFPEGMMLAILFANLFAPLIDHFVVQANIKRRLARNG
T1 sequence (Q9HZK8 whole entry): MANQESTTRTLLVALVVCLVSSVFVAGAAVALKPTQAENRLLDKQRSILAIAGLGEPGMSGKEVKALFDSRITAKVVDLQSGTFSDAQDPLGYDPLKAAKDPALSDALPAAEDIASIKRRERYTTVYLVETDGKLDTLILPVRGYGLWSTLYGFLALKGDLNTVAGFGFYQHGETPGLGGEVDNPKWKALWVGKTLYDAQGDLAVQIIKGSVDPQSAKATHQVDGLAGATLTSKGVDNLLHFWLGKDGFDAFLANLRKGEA
T1 sequence (Q9HZL1 whole entry partner): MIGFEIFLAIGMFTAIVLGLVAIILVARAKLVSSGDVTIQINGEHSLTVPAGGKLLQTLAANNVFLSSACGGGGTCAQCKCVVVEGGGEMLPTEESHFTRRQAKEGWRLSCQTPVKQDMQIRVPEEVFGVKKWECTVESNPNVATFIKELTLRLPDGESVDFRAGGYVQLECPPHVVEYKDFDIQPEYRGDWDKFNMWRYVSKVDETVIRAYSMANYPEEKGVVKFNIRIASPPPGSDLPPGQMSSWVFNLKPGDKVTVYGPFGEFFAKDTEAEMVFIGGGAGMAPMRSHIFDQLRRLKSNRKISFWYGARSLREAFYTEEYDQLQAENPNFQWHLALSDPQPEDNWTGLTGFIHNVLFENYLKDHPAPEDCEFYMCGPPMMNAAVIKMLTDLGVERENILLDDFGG
T1 sequence (Q9HZK6 whole entry partner): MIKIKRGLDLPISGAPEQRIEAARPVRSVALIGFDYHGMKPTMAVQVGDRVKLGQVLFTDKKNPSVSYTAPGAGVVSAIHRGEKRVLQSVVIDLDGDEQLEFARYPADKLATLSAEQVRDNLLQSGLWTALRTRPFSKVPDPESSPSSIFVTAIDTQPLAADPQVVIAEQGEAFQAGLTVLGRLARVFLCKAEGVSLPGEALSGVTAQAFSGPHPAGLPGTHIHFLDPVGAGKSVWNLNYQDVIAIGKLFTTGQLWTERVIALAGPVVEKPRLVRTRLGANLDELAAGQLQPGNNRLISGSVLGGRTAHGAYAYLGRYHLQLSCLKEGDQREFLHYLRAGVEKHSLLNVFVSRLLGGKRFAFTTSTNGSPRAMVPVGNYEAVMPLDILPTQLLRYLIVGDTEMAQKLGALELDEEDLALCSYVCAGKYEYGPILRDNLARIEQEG
T1 sequence (Q9HZK9 whole entry partner): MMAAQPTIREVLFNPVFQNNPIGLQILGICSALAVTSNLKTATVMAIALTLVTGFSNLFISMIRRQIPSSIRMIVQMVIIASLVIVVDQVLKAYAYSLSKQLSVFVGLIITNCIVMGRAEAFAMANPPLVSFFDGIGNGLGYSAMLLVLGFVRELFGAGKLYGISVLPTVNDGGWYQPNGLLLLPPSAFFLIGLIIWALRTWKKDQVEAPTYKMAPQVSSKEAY
T1 sequence (Q9HZL0 whole entry partner): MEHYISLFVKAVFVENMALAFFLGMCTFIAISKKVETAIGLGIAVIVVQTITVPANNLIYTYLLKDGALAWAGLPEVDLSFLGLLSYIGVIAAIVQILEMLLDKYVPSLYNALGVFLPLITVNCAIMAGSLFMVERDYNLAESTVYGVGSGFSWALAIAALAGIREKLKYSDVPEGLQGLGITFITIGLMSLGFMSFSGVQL
Experiment: in-gel flavin fluorescence of the partially purified complex (SDS gel under UV)
Assay type: binding
Details: covalent (retained on SDS gel); bands of subunits NqrB and NqrC

Cc1cc2nc3c(=O)[nH]c(=O)nc-3n(C[C@H](O)[C@H](O)[C@H](O)COP(=O)(O)O)c2cc1C [FMN]
in-gel flavin fluorescence of the partially purified complex (SDS gel under UV): two fluorescent bands characteristic of the FMN cofactors of the NqrB and NqrC subunits
